Results reported in patent publication US20250281496A1, “METHODS OF TREATING NEUROPATHY USING FORETINIB AND COMPOSITIONS THEREOF” (INDIANA UNIVERSITY RESEARCH AND TECHNOLOGY CORPORATION, priority 2022, published 2025).

Experiments:
[1] = system: experimental diabetic neuropathy; test: Intraepidermal nerve fiber density (IENFD) in plantar skin of STZ-diabetic mice; format: in vivo
Procedure: The primary objective of these experiments was to determine the effect of oral Foretinib on cutaneous innervation density in an experimental diabetic neuropathy. The numbers of animals needed for these experiments were determined by power analysis based on preliminary experiments assessing the cutaneous innervation density in diabetic and non-diabetic mice. A 50% increased nerve fiber density compared to the diabetic control was considered scientifically relevant, requiring a minimum of n=5 animals per group to achieve a power of 0.9 when assuming a standard deviation (SD) of 0.01 for all groups (normally distributed, two-sided). Animals were randomly allocated to experimental groups prior to induction of diabetes and the investigators were blinded during outcome assessments. Two experimental animals allocated to the Foretinib treated group were excluded from the experiment after not responding to the STZ injections. No outliers were excluded from the analysis. After five weeks, the experiment was terminated because 4 of 8 animals reached a predefined humane endpoint of greater than 15% weight loss compared to their pre-diabetic weight. The scheduled experimental endpoint was 12 weeks post-STZ injection.
A total of 25 adult (24-28g), transgenic mice with a genetic black six background were included. […]

[2] = Pharmacokinetics: blood plasma concentration after single IP injection, mass spectrometry; format: in vivo, mice
Procedure: A) Quantitative representation of changes in mouse body weight in dependence of the indicated IP daily doses of Foretinib (n=2 per dose). B) Changes in mouse blood plasma concentration of 5 mg/kg IP injected Foretinib during 48 hours after a single injection (n=3).
It is expected that Foretinib will protect against the diabetes-induced loss of terminal axons and ensheathing SC. In our previous study, 30 mg/kg of foretinib was administered via daily gavage for a course of 5 weeks. Although reported as non-toxic, at this dose the drug, along with a strong neuroprotective effect, caused lethargic behavior, ruffled fur and weight loss requiring early termination of the experiment. Due to the substantial prevalence of type 2 diabetes, we will examine the effect of foretinib treatment on type 2 diabetic mice (db/db). To define the maximal tolerable dose, we treated wt mice by daily intraperitoneal (IP) injection of several various dosages of foretinib for 20 days, while assessing the mice weight and behavior. […] Next, to define the pharmacokinetic (PK) characteristics of the drug, we performed a mass spectrometry analysis of blood samples from wt mice treated with 5 mg/kg (n=3 mice per dose per time point). We observed that IP injection of 5 mg/kg of foretinib generated nearly 100 ng/ml blood concentration during first 4 hours, declining by 4 ng/ml/hour (FIG. 7B).

[3] = system: sympathetic and sensory neurons; test: Neuroprotection in primary culture of sympathetic and sensory neurons (trophic deprivation); format: cell-based

COc1cc2c(Oc3ccc(NC(=O)C4(C(=O)Nc5ccc(F)cc5)CC4)cc3F)ccnc2cc1OCCCN1CCOCC1 [Foretinib, N1-[3-Fluoro-4-({6-methoxy-7-[3-(morpholin-4-yl)propoxy]quinolin-4-yl}oxy)phenyl]-N′1-(4-fluorophenyl)cyclopropane-1,1-dicarboxamide]
intraepidermal nerve fiber density (IENFD), plantar skin ([1]; 30 mg/kg oral daily, 5 weeks post-diabetes induction, versus other diabetic groups): similarly reduced IENFD | reduction in epidermal nerve fiber density compared to healthy mice ([1]; all diabetic groups incl. Foretinib 30 mg/kg/day oral, five weeks after diabetes induction): 25% | decline of blood concentration ([2]; 5 mg/kg IP single injection, after first 4 hours): 4 ng/mL/h | blood concentration during first 4 hours ([2]; 5 mg/kg IP single injection, wt mice, n=3): ~100 ng/mL | blood concentration expressed in molar units ([2]; 5 mg/kg IP, conversion of 100 ng/ml): 160 nM | effective neuroprotective concentration [3]: > 100 nM
